System: MOLM-13 cells
Assay: MTS assay of MOLM-13 cells overexpressing UBE2N wild type or UBE2N C87S
Format: cell-based, human
Source text: For knockdown studies, UBE2N shRNA template oligonucleotides from the TRC shRNA library cloned into the pLKO.1 TRC cloning vector (Addgene: #10878) and pLKO.1 TRC cloning vector (Table 3). The puromycin gene in pLKO.1 was replaced with GFP. pLKO.1 TRC control was used as non-silencing control (Addgene: #10879). For production of lentiviral particles, lentiviral shRNA expression constructs were transfected together with packaging vectors into 293T producer cells using TransIT transfection reagent (Mirus, MIR 2306), supernatants were harvested after 48 and 72 hours, and concentrated by ultracentrifugation. […] UBE2N knockdown efficiency was determined by quantitative real time PCR (qRT-PCR) and western blot and quantified as described elsewhere. […] Levels of overexpression of UBE2N were determined by western blot.
AML cell lines (5×10^3 cells/well) were seeded in 96-well plates and grown for 24 to 96 h in serum (10%)-containing medium in the presence or absence of inhibitors at the indicated concentrations. Proliferation was analyzed by means of an MTS assay using the CellTiter 96 Aqueous One Solution Cell Proliferation Assay (Promega, Madison, Wis., USA), according to the manufacturer's instructions. […] For the screening of 160 compounds from the UC library, the cell metabolic activity was assessed at 24 hours of treatment of MOLM-13 cells. […]

In the case of `CCc1ccc(C(=O)C=CSc2nc3ccc(C)cc3[nH]2)cc1` [UC-764864, 1-(4-ethylphenyl)-3-[(6-methyl-1H-benzimidazol-2-yl)sulfanyl]prop-2-en-1-one], the “viability of MOLM-13 cells expressing UBE2N(C87S)” value is reported as “did not affect” and the “viability of MOLM-13 cells expressing wild-type UBE2N” value is reported as “significantly suppressed”.

From patent US20220267753A1, “RATIONAL THERAPEUTIC TARGETING OF ONCOGENIC IMMUNE SIGNALING STATES IN MYELOID MALIGNANCIES VIA THE UBIQUITIN CONJUGATING ENZYME UBE2N” (CHILDREN'S HOSPITAL MEDICAL CENTER, priority 2019, published 2022)
